Source: US11786534B2 (TAIHO PHARMACEUTICAL CO., LTD., priority 2019, dated 2023)

Key:
Format in all cases: biochemical
[1] = target: T1, human EGFR (d746-750/T790M/C797S) (Homo sapiens, UniProt P00533, C797S/DEL746-750/T790M); assay: Inhibitory activity against EGFR (d746-750/T790M/C797S) kinase
T1 construct: made in house; host or cells: Sf9 insect cells, baculovirus
Method: 1) Measurement of inhibitory activity against EGFR (d746-750/T790M/C797S) kinase
The compounds of the above examples and comparative examples were measured for their inhibitory activity against EGFR (d746-750/T790M/C797S) kinase activity. Among the materials required for measurement of this inhibitory activity, the kinase protein (SEQ ID NO: 1) used was prepared as follows: the cytoplasmic domain of human EGFR (d746-750/T790M/C797S) fused at the ammo terminal end with a glutathione-S-transferase (GST) tag was expressed M insect cells (Sf9) by the baculovirus expression system and then purified an a glutathione sepharose column. For use as a substrate peptide, a peptide biotinylated at the N-terminal end (biotin -EEPLYWSFPAKKK) was synthesized by reference to Perkin Elmer LabChip® series reagent FL-Peptide 22.
Procedures for measurement of the inhibitory activity are as follows. First, the compounds of the present invention were each dissolved in dimethyl sulfoxide (DMSO), and their serial dilutions were then prepared with DMSO. Secondly, each compound serial dilution (final concentration of DMSO during kinase reaction: 2.5%) or DMSO (final concentration: 2.5%) was mixed with a solution containing the substrate peptide (final concentration: 250 nM), magnesium chloride (final concentration: 10 mM), manganese chloride (final concentration: 10 mM) and ATP (final concentration: 6 μM) in a kinase reaction buffer (Carna Biosciences Inc., Japan), and the EGFR (d746-750/T790M/C797S) protein was further added thereto, followed by incubation at 25° C. for 120 minutes to cause kinase reaction. To the reaction solution, EDTA was added to give a final concentration of 24 mM to thereby stop the reaction, followed by addition of a phospholylated tyrosine detection solution containing europium-labeled anti-phosphorylated tyrosine antibody PT66 (Perkin Elmer) and SureLight APC-SA (Perkin Elmer). The reaction solution was allowed to stand at room temperature for 2 hours or longer. As a background, DMSO was used instead of each compound solution in .DMSO, and EDIA was added prior to the addition of the EGFR EGFR (d746-750/T790M/C797S) protein, followed by incubation at 25° C. for 120 minutes. The same detection solution was also added to this reaction solution, which was then allowed to stand for 2 hours or longer. Finally, all the test samples were measured with a PHERAstar FS reader (BMG LABTECH) for their fluorescence intensity at two wavelengths of 620 nm and 665 nm upon irradiation with an excitation light of 337 nm wavelength, and the ratio of fluorescence intensities at these two wavelengths was obtained as data for each compound.
Moreover, as control compounds, the above Comparative Example A (Example 3 in WO2013/118817) and Comparative Example B (Example 35 in WO2013/118817) known to have EGFR inhibitory activity were used.
In accordance with the same procedures as shown in 1) in Test Example 1, the compounds of the above examples were measured for their inhibitory activity against EGFR (d746-750/T790M/C797S) kinase activity.

[2] = target: T2, human EGFR (L858R/T790M/C797S) (Homo sapiens, UniProt P00533, C797S/L858R/T790M); assay: Inhibitory activity against EGFR (L858R/T790M/C797S) kinase
T2 construct: made in house; host or cells: Sf9 insect cells, baculovirus
Method: 2) Measurement of inhibitory activity against EGFR (L858R/T790M/C797S) kinase
The compounds of the presein invention were measured for their inhibitory activity against EGFR (L858R/T790M/C797S) kinase activity.
The materials, measurement procedures and data analysis method used in this test are substantially the same as those shown in the section “Measurement of inhibitory activity against EGFR (d746-750/T790M/C797S) kinase.” However, among the materials, the kinase protein (SEQ ID NO: 2) used was prepared as follows: the cytoplasmic domain of human EGFR (L858R/T790M/C797S) fused at the amino terminal end with a GST tag was expressed in insect cells (Sf9) by the baculovirus expression system and then purified on a glutathione sepharose column. In the measurement procedures, the final concentration of ATP was set to 0.5 μM. Finally, data analysis was conducted to determine the IC50 value (nM) of each compound against EGFR (L858R/T790M/C797S).
In accordance with the same procedures as shown in 2) in Test Example 1, the compounds of the present invention were measured for their inhibitory activity against EGFR (L858R/T790M/C797S) kinase activity.

[3] = target: T3, human EGFR (d746-750/C797S) (Homo sapiens, UniProt P00533, C797S/DEL746-750); assay: Inhibitory activity against EGFR (d746-750/C797S) kinase
T3 construct: purchased SignalChem
Method: 3) Measurement of inhibitory activity against EGFR (d746-750/C797S) kinase
The compounds of the present invention were measured for their inhibitory activity against EGFR (d746-750/C797S) kinase activity.
The materials, measurement procedures and data analysis method used in this test are substantially the same as those shown in the section “Measurement of inhibitory activity aiainst EGFR (d746-750/T790M/C797S) kinase.” However, among the materials, the kinase protein used was a purified recombinant human EGFR (d746-750/C797S) protein purchased from SignalChem, while the kinase reaction buffer used was 13.5 mM Tris (pH 7.5) containing 2 mM dithiothreitol and 0.009% Tween-20. In the measurement procedures, the final concentration of ATP was set to 14 μM, the final concentration of maganesium chloride was set to 20 mM, the final concentration of manganese chloride was set to 12.5 mM, the incubation time for kinase reaction was set to 60 minutes, and the final concentration of EDTA used to stop the kinase reaction was set to 40 mM. Finally, data analysis was conducted to determine to IC50 value (nM) of each compound against EGFR (d746-750/C797S).
In accordance with the same procedures as shown in 3) in Test Example 1, the compounds of the present invention were measured for their inhibitory activity against EGFR (d746-750/C797S) kinase activity.

human EGFR (L858R/C797S) = target: T4, human EGFR (L858R/C797S) (Homo sapiens, UniProt P00533, C797S/L858R); assay: Inhibitory activity against EGFR (L858R/C797S) kinase
T4 construct: purchased SignalChem
Method: 4) Measurement of inhibitory activity against EGFR (L858R/C797S) kinase
The compounds of the present invention were measured for their inhibitory activity aeainst EGFR (L858R/C797S) kinase activity.
The materials, measurement procedures and data analysis method used in this test are stibstantially the same as those shown in the section “Measurement of inhibitory activity against EGFR (d746-750/C797S) kinase.” However, among the materials, the kinase protein used was a purified recombinant human EGFR (C797S/L858R) protein purchased from SignalChem. In the measurement procedures, the final concentration of ATP was set to 4 μM, and the incubation time for kinase reaction was set to 90 minutes. Finally, data analysis was conducted determine the IC50 value (nM) of each compound against EGFR (L858R/C797S).
In accordance with the same procedures as shown in 4) in Test Example 1, the compounds of the present invention were measured for their inhibitor activity against. EGFR (L858R/C797S) kinase activity.

human EGFR (WT) = target: T5, human EGFR (WT) (Homo sapiens, UniProt P00533); assay: Inhibitory activity against EGFR (WT) kinase
T5 construct: purchased Carna Biosciences Inc., Japan
Method: The compounds of the present invention were measured for their inhibitory activity nainst EGFR (WT) kinase activity.
The materials, measurement procedures and data analysis method used in this test. are substantially the same as those shown in the section “Measurement of inhibitory activity against EGFR (d746-750/T790M/C797S) kinase.” However, among the materials, the kinase protein used was a purified recombinant human EGFR (WT) purchased from Carna Biosciences Inc., Japan. In the measurement procedures, the final concentration of ATP was set to 1.5 μM. Finally, data analysis was conducted to determine the IC50 value (nM) of each compound against EGFR (WT).
In accordance with the same procedures as shown in 5) in Test Example 1, the compounds of the present invention were measured for their inhibitory activity against. EGFR (WT) kinase activity.

[4] = Test Example 3, Table 8; same procedures as 1) in Test Example 1
[5] = Test Example 3, Table 9; same procedures as 2) in Test Example 1
[6] = Test Example 3, Table 10; same procedures as 3) in Test Example 1
[7] = Test Example 3, Table 11; same procedures as 4) in Test Example 1
[8] = Test Example 3, Table 12; same procedures as 5) in Test Example 1
[9] = Test Example 1, Table 2, ATP 6 μM, 25° C., 120 minutes
[10] = Test Example 1, Table 3, ATP 0.5 μM
[11] = Test Example 1, Table 4, ATP 14 μM, 60 minutes
[12] = Test Example 1, Table 5, ATP 4 μM, 90 minutes
[13] = Test Example 1, Table 6, ATP 1.5 μM

T3 sequence (P00533 with tags, fused parts or gaps DEL746-750/C797S): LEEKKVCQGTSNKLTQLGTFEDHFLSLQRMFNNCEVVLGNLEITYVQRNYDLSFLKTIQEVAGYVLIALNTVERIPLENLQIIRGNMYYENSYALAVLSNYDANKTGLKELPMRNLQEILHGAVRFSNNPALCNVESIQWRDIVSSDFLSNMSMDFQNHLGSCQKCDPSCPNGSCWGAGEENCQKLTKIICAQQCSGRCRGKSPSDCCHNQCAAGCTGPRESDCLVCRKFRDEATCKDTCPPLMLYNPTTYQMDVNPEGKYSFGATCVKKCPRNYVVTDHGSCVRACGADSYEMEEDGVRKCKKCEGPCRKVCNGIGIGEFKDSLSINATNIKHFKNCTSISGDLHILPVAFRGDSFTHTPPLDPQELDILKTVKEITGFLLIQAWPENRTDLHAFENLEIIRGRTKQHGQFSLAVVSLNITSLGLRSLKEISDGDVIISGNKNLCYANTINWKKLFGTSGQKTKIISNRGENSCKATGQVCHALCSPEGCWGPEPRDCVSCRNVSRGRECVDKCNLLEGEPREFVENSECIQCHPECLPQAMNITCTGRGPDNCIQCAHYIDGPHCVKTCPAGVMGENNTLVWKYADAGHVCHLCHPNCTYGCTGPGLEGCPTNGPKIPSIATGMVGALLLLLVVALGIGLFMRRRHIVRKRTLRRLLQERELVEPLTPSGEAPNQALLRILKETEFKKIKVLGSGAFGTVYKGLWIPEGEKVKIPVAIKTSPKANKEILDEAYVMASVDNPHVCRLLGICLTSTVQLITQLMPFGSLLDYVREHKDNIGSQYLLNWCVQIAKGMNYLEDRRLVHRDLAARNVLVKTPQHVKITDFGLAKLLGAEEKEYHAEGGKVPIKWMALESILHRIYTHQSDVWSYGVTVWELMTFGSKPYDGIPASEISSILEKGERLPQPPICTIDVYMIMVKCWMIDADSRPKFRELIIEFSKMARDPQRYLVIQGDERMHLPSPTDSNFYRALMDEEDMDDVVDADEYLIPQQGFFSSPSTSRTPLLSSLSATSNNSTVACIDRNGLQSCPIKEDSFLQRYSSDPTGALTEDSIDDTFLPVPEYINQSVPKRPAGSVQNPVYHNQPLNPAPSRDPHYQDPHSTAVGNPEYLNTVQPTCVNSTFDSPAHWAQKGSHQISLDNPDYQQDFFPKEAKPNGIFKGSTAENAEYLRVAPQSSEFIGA
T4 sequence (P00533 25-1210 C797S/L858R): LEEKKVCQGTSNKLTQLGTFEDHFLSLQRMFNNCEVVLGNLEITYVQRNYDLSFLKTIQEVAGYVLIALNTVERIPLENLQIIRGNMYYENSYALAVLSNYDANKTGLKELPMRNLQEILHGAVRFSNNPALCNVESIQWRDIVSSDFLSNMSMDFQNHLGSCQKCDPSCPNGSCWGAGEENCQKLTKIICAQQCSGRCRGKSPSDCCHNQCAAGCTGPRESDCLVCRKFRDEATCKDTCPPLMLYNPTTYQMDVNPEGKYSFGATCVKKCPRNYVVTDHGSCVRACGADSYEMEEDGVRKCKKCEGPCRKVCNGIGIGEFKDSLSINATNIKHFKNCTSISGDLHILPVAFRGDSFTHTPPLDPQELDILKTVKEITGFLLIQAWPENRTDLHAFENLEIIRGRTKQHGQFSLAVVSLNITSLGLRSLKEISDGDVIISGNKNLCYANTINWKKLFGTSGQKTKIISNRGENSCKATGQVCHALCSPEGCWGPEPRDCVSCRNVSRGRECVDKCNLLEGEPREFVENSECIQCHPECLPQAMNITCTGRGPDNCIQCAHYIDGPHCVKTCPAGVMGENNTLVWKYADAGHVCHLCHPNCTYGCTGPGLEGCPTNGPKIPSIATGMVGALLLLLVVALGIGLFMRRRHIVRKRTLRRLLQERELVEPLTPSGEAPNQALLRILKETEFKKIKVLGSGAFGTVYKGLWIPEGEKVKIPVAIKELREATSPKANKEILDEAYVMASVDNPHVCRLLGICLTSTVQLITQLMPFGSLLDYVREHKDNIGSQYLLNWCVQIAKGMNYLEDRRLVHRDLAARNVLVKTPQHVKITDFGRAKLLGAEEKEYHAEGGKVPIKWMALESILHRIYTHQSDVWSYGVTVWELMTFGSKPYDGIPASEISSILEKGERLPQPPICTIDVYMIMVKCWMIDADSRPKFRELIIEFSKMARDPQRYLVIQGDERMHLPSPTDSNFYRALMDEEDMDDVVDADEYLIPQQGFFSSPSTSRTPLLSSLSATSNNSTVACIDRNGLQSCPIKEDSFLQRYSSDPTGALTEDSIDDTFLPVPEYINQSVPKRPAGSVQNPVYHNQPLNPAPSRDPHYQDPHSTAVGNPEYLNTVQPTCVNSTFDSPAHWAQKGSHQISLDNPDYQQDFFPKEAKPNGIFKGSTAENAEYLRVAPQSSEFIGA
T1 sequence (P00533 with tags, fused parts or gaps DEL746-750/T790M/C797S): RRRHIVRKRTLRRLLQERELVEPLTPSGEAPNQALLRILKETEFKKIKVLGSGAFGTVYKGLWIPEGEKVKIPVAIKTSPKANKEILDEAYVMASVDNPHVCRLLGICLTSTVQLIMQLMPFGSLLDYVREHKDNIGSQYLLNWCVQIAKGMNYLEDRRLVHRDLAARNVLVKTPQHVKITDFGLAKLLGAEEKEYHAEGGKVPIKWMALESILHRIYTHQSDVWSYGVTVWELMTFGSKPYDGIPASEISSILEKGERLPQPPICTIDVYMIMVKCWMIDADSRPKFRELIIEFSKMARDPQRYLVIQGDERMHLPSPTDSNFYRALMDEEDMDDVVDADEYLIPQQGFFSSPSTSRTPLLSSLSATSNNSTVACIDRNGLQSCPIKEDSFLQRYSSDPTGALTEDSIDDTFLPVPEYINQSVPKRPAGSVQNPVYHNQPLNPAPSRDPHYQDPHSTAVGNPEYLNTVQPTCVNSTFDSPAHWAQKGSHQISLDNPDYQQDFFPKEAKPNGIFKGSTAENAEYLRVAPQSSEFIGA
T2 sequence (P00533 with tags, fused parts or gaps T790M/C797S/L858R): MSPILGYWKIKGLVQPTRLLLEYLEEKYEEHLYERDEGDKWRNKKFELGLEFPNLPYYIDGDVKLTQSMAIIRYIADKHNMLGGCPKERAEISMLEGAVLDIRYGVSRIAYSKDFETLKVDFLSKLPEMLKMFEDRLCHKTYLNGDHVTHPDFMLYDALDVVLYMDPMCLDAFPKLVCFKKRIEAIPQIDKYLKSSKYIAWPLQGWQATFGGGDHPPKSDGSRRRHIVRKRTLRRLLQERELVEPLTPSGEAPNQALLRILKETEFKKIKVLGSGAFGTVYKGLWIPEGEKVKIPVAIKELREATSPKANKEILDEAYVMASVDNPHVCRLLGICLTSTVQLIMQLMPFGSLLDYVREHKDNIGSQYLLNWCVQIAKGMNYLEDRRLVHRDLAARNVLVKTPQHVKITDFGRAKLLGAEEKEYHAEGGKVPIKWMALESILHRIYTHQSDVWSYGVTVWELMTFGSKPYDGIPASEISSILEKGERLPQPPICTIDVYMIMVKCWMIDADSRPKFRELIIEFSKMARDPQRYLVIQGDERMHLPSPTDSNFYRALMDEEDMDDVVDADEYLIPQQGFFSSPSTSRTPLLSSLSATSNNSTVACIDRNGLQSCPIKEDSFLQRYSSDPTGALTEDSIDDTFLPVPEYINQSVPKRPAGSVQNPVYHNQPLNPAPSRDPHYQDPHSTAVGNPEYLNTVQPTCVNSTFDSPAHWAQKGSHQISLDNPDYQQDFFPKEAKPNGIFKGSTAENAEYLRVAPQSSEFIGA
T5 sequence (P00533 25-1210): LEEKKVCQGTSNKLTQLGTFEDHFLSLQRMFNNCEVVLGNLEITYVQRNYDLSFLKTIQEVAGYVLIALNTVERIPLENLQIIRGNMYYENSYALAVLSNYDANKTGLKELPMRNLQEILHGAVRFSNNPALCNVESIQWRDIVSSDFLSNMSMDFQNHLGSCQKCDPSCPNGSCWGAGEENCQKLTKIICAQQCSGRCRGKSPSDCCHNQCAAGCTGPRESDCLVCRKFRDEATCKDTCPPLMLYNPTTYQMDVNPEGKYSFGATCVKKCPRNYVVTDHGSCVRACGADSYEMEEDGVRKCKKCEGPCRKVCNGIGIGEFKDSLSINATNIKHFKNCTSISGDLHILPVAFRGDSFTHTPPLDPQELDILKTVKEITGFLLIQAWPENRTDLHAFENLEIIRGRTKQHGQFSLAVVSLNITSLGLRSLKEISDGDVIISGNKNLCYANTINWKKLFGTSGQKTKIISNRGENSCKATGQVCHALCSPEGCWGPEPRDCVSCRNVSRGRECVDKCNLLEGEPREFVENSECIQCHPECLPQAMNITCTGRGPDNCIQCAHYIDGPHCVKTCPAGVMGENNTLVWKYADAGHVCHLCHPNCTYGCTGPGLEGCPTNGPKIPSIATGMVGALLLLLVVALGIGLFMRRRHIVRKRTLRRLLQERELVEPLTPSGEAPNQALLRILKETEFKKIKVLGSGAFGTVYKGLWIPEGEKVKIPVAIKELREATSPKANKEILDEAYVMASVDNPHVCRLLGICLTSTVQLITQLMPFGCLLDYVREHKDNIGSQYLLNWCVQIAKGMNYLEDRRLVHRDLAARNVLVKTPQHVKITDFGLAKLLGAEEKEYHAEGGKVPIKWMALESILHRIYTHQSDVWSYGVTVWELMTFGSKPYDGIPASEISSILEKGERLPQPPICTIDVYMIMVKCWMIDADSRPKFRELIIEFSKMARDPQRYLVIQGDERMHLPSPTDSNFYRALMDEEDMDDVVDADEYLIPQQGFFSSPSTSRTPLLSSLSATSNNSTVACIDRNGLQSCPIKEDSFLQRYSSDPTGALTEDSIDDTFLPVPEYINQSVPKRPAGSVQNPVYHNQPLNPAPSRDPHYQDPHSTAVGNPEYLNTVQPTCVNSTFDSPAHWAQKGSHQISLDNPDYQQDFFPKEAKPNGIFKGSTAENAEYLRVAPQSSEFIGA

SMILES | IC50 [1, 4] | IC50 [2, 5] | IC50 [3, 6] | IC50 (human EGFR (L858R/C797S); [7]) | IC50 (human EGFR (WT); [8]) | IC50 [1, 9] | IC50 [2, 10] | IC50 [3, 11] | IC50 (human EGFR (L858R/C797S); [12]) | IC50 (human EGFR (WT); [13])
C#Cc1c(-c2cnc3ccccc3c2)c2c(N)ncnc2n1C12CCC(NC(=O)c3ccc(P(C)(C)=O)cn3)(CC1)C2 [Example 70, N-(4-(4-Amino-6-ethynyl-5-(quinolin-3-yl)-7H-pyrrolo[2,3-d]pyrimidin-7-yl)bicyclo-[2.2.1]heptan-1-yl)-5-(dimethylphosphoryl)picolinamide] | < 0.3 nM | < 0.3 nM | 0.7 nM | 1.6 nM | 0.94 nM | – | – | – | – | –
C#Cc1c(-c2cnc3ccccc3c2)c2c(N)ncnc2n1C12CCC(NC(=O)c3cnc(CN4CCOCC4)cn3)(CC1)C2 [Example 69, N-(4-(4-Amino-6-ethynyl-5-(quinolin-3-yl)-7H-pyrrolo[2,3-d]pyrimidin-7-yl)bicyclo-[2.2.1]heptan-1-yl)-5-(morpholinomethyl)pyrazine-2-carboxamide] | < 0.3 nM | < 0.3 nM | < 0.3 nM | 0.59 nM | 0.74 nM | – | – | – | – | –
C#Cc1c(-c2cnc3ccccc3c2)c2c(N)ncnc2n1C12CCC(NC(=O)c3cccc[n+]3[O-])(CC1)C2 [Example 60, 2-((4-(4-Amino-6-ethynyl-5-(quinolin-3-yl)-7H-pyrrolo[2,3-d]pyrimidin-7-yl)bicyclo-[2.2.1]heptane-1-yl)carbamoyl)pyridine 1-oxide] | < 0.3 nM | < 0.3 nM | 0.3 nM | 0.48 nM | 0.72 nM | – | – | – | – | –
C#Cc1c(-c2cnc3ccccc3c2)c2c(N)ncnc2n1C12CCC(NC(=O)c3cncc(C#N)c3)(CC1)C2 [Example 34, N-(4-(4-Amino-6-ethynyl-5-(quinolin-3-yl)-7H-pyrrolo[2,3-d]pyrimidin-7-yl)-bicyclo-[2.2.1]heptan-1-yl)-5-cyanonicotinamide] | – | – | – | – | – | < 0.3 nM | < 0.3 nM | 0.46 nM | 0.45 nM | 0.84 nM
C#Cc1c(-c2cnc3ccccc3c2)c2c(N)ncnc2n1C12CCC(NC(=O)c3cncc(OCF)n3)(CC1)C2 [Example 38, N-(4-(4-Amino-6-ethynyl-5-(quinolin-3-yl)-7H-pyrrolo[2,3-d]pyrimidin-7-yl)-bicyclo-[2.2.1]heptan-1-yl)-6-(fluoromethoxy)pyrazine-2-carboxamide] | – | – | – | – | – | < 0.3 nM | 0.66 nM | 0.56 nM | 0.97 nM | 1.6 nM
C#Cc1c(-c2cnc3ccccc3c2)c2c(N)ncnc2n1C12CCC(CO)(CC1)C2 [Example 10] | – | – | – | – | – | < 0.3 nM | 0.56 nM | 0.62 nM | 0.95 nM | 1.1 nM

Other lines, results leading:

IC50 [1, 4] | IC50 [2, 5] | IC50 [3, 6] | IC50 (human EGFR (L858R/C797S); [7]) | IC50 (human EGFR (WT); [8]) | IC50 [1, 9] | IC50 [2, 10] | IC50 [3, 11] | IC50 (human EGFR (L858R/C797S); [12]) | IC50 (human EGFR (WT); [13]) | SMILES
– | – | – | – | – | < 0.3 nM | 0.33 nM | 0.64 nM | 1.2 nM | 1.9 nM | C#Cc1c(-c2cnc3ccccc3c2)c2c(N)ncnc2n1C12CCC(NC(=O)c3cc(S(C)(=O)=O)ccn3)(CC1)C2 [Example 30, N-(4-(4-Amino-6-ethynyl-5-(quinolin-3-yl)-7H-pyrrolo[2,3-d]pyrimidin-7-yl)bicyclo-[2.2.1]heptan-1-yl)-4-(methylsulfonyl)picolinamide]
– | – | – | – | – | < 0.3 nM | 0.68 nM | 0.97 nM | 2 nM | 1.2 nM | C#Cc1c(-c2cnc3ccccc3c2)c2c(N)ncnc2n1C12CCC(NC(=O)NCC)(CC1)C2 [Example 50]
– | – | – | – | – | < 0.3 nM | 0.6 nM | 1.5 nM | 2.6 nM | 0.88 nM | C#Cc1c(-c2cnc3ccccc3c2)c2c(N)ncnc2n1C12CCC(NC(=S)NCC)(CC1)C2 [Example 52]
– | – | – | – | – | < 0.3 nM | 0.31 nM | 0.32 nM | 0.39 nM | 0.62 nM | C#Cc1c(-c2cnc3ccccc3c2)c2c(N)ncnc2n1C12CCC(NC(=O)c3cc(CF)nn3C)(CC1)C2 [Example 29, N-(4-(4-Amino-6-ethynyl-5-(quinolin-3-yl)-7H-pyrrolo[2,3-d]pyrimidin-7-yl)bicyclo-[2.2.1]heptan-1-yl)-3-(fluoromethyl)-1-methyl-1H-pyrazole-5-carboxamide]
– | – | – | – | – | < 0.3 nM | 0.79 nM | 0.61 nM | 0.66 nM | 2.6 nM | C#Cc1c(-c2cnc3ccccc3c2)c2c(N)ncnc2n1C12CCC(NC(=O)c3ccnn3CCOC)(CC1)C2 [Example 17, N-(4-(4-Amino-6-ethynyl-5-(quinolin-3-yl)-7H-pyrrolo[2,3-d]pyrimidin-7-yl)bicyclo-[2.2.1]heptan-1-yl)-1-(2-methoxyethyl)-1H-pyrazole-5-carboxamide]
